Assay results taken from US20050222173A1, “Triazolopyrimidines” (priority 2002, published 2005).

Tested on: Pyricularia oryzae
Assay: not given
Assay type: in vivo
Conditions: rice, protective, application rate 250 g/ha, evaluation 6 days after inoculation
For C[C@H](Nc1c(-c2ccccc2Cl)c(Cl)nc2nc(Cl)nn12)C(F)(F)F, the Efficacy in % was 100%.
For C[C@H](Nc1c(-c2c(F)cccc2Cl)c(Cl)nc2nc(Cl)nn12)C(F)(F)F [drawing 69], the Efficacy in % was 100%.

Tested on: not listed separately
Assay: physchem
Conditions: not given
CC(C)Nc1c(-c2ccccc2Cl)c(Cl)nc2nc(Cl)nn12 [Example 1, N-[2,5-dichloro-6-(2-chlorophenyl)[1,2,4]triazolo[1,5-a]pyrimidin-7-yl]-N-isopropylamine] gave a chromatographic logP of 3.43.
Clc1nc2nc(Cl)c(-c3ccccc3Cl)c(Cl)n2n1 [Example 177, 2,5,7-trichloro-6-(2-chlorophenyl)[1,2,4]triazolo[1,5-a]pyrimidine] gave a chromatographic logP of 3.37.
In the case of Clc1ccccc1-c1c(Cl)nc2nc(Br)nn2c1Cl [Example 178, 2-Bromo-5,7-dichloro-6-(2-chlorophenyl)[1,2,4]triazolo[1,5-a]pyrimidine], the chromatographic logP is reported as 3.39.
Fc1cc(F)c(-c2c(Cl)nc3nc(Cl)nn3c2Cl)c(F)c1 [Example 179, 2,5,7-Trichloro-6-(2,4,6-trifluorophenyl)[1,2,4]triazolo[1,5-a]pyrimidine] showed a chromatographic logP of 3.28.
Fc1cc(F)c(-c2c(Cl)nc3nc(Br)nn3c2Cl)c(F)c1 [Example 180, 2-Bromo-5,7-dichloro-6-(2,4,6-trifluorophenyl)[1,2,4]triazolo[1,5-a]pyrimidine] gave a chromatographic logP of 3.27.

Tested on: Venturia inaequalis
Assay: Venturia test (apple)/protective
Assay type: in vivo
Conditions: Venturia inaequalis, 240 h, protective, application rate 100 g/ha, evaluation 10 days after inoculation, read-out: Efficacy in %
Experimental: Venturia Test (Apple)/Protective [table] To produce a suitable preparation of active compound, 1 part by weight of active compound is mixed with the stated amounts of solvent and emulsifier, and the concentrate is diluted with water to the desired concentration. To test for protective activity, young plants are sprayed with the preparation of active compound at the stated application rate. […] The plants are then placed in a greenhouse at about 21° C. and a relative atmospheric humidity of about […].
Work on Fc1cccc(Cl)c1-c1c(Cl)nc2nc(Cl)nn2c1N1CCCC1 [drawing 61] yielded a pest or weed control at 100 g/ha of 85%.
Molecule C=CCN(CC)c1c(-c2c(F)cccc2Cl)c(Cl)nc2nc(Cl)nn12 [drawing 62] has a pest or weed control at 100 g/ha of 96%.
For CC(C)CNc1c(-c2c(F)cccc2Cl)c(Cl)nc2nc(Cl)nn12 [drawing 63], the pest or weed control at 100 g/ha was 91%.
Fc1cccc(Cl)c1-c1c(Cl)nc2nc(Cl)nn2c1NCC1CC1 [drawing 64] gave a pest or weed control at 100 g/ha of 99%.
With COCCN(C)c1c(-c2c(F)cccc2Cl)c(Cl)nc2nc(Cl)nn12 [drawing 65] the pest or weed control at 100 g/ha was 96%.
In the case of COc1nc2nc(Cl)c(-c3c(F)cc(F)cc3OC)c(NC(C)C(F)(F)F)n2n1 (centres unmarked) [drawing 67], the pest or weed control at 100 g/ha is reported as 99%.

Same assay, conditions: protective, application rate 100 g/ha, evaluation 10 days after inoculation
C=C(C)CN(C)c1c(-c2c(F)cccc2Cl)c(Cl)nc2nc(Cl)nn12 [drawing 66] gave an Efficacy in % of 84%.
